Test results as given in patent US9731013B2 (UNIVERSITY OF FLORIDA RESEARCH FOUNDATION, INC., priority 2008, dated 2017).

How the values were obtained:
[1] = Water solubility observation of samples; type: physicochemical
[2] = Radiofrequency (RF) heating of samples dissolved or suspended in water; type: physicochemical; conditions: RF 13.56 MHz, 500 W, 250 μL sample in water; for temperature rise (in words): up to five minutes
Description: FIG. 1 is a plot of the temperature rise of samples comprising functionalized fullerenes according to embodiments of the invention that are dissolved or suspended in water during irradiation with RF at 13.56 MHz and 500 W RF power over a period of five minutes.
FIG. 2 is a bar graph of the temperature rise of samples comprising functionalized fullerenes according to embodiments of the invention that are dissolved or suspended in water after irradiation with RF at 13.56 MHz and 500 W RF power for 30 seconds (left bars) and 60 seconds (right bars).
Heating of a volume of water by irradiation of fullerene comprising compounds was carried out using a radiofrequency (RF) heating system (Therm Med, LLC, Erie, Pa.) operating at 13.56 MHz and 500 W RF power. A volume of 250 μL of sample dissolved or suspended in water was pipetted into a cylindrical quartz cuvette for RF exposure. The cuvette was placed on a thin horizontal Teflon sample holder positioned at a depth of 7.6 cm from RF generator.

| Substance | water solubility (in words) [1] | temperature rise in 5 minutes ([2]; 5 minutes) | temperature rise (in words) [2] |
| --- | --- | --- | --- |
| Gadofullerenes (Gd@C82) [GdF] | not water soluble | 10 °C |  |
| Polyhydroxy fullerenes [PBU] |  |  | Temperature rise was observed |
| Pristine C60 [FN, reference compound] | not water soluble |  | did not show a temperature rise |
